# Where “and” joins values, the source holds several entries; their conditions need not be identical. Equal values may be shown once. Read-outs that look alike come from different tables or passages of the source.
# Columns and labels:
# S. aureus [1] = type: cell-based
# Description: (§1) Sequential dilutions of the above two stock solutions were then prepared also in sterile saline. A portion of 0.05 ml of each dilution was added to 0.95 ml of bacterial culture (trypticase soy broth containing 10^6 CFU/ml). […] The test cultures were incubated at 37° C. for 24 hr, the total viable bacteria were numerated by plate count on Trypticase® soy agar (BBL) containing inactivating agent. The plates were incubated at 37° C. for 48 hr and reported as colony forming unit/ml (CFU/ml).
# E. coli [2] = experiment: Viable plate count after 24 hr incubation in trypticase soy broth culture; type: cell-based
# Description: as §1
# C. albicans [3] = experiment: Zone of inhibition assay of coated sutures; type: cell-based; details: coated suture; 0.5% in coating solution; 37° C. 48 hr
# S. aureus [4] = experiment: Zone of inhibition assay of coated sutures; type: cell-based, Staphylococcus aureus; details: coated 2-0 polyglactin 910 suture; 0.5% in coating solution; 37° C. 48 hr
# Description: (§2) The coating solutions were made by dissolving a L(−) lactide/glycolide copolymer containing 65 mole % lactide and 35 mole % glycolide (4.5%) and calcium stearate (4.5%) in ethyl acetate. […] The sutures were hand coated by dipping into the coating solution containing antimicrobial composition and then air dried at room temperature for 8 hr. […] A Petri dish was inoculated with about 10^5 cfu/suture and a portion of 20 ml of TSA tempered at 47° C. was added into the Petri dish. The inoculum was mixed thoroughly with the medium and the suture was placed in the middle of the Petri dish. The inoculated Petri dishes were incubated at 37° C. for 48 hr and then the zone of inhibition was measured with a digital caliper.
# (§3) The zone of inhibition assay was performed against S. aureus and E. coli over a two-day period.
# E. coli [5] = experiment: Zone of inhibition assay of coated sutures; type: cell-based; details: coated suture; 0.5% in coating solution; 37° C. 48 hr
# Description: as §2, §3
# [6] = rats; cited from earlier work
# P. aeruginosa = experiment: Viable plate count after 24 hr incubation in trypticase soy broth culture; type: cell-based
# Description: as §1
# E. faecium = experiment: as above; type: cell-based
# Description: as §1
# C. albicans [7] = experiment: as above; type: cell-based
# Description: as §1
# [8] = system: Staphylococcus aureus, E. coli and C. albicans; experiment: Zone of inhibition assay of coated sutures, summary in text; type: cell-based; details: coated suture
# Description: as §2, §3
# [9] = animals and humans; cited from earlier work
# [10] = single agent 10 ppm, 37° C. 24 hr
smiles,measurement,setting,value
"O=[N+]([O-])[O-].[Ag+] [AgNO3, silver nitrate]",CFU/ml S. aureus,"S. aureus [1]; Table 2, single agent 10 ppm",9.3 × 10^8 CFU/ml
same,CFU/ml S. aureus,"S. aureus [1]; Table 2, single agent 20 ppm",2.2 × 10^8 CFU/ml
same,CFU/ml E. coli,"E. coli [2]; Table 2, single agent 10 ppm",1.2 × 10^9 CFU/ml
same,CFU/ml E. coli,"E. coli [2]; Table 2, single agent 20 ppm",1.0 × 10^8 CFU/ml
"CCCCCCCCCCCC(=O)N[C@@H](CCCN=C(N)N)C(=O)OCC.Cl [LAE, ethyl ester of the lauramide of the arginine monohydrochloride]",Zone of inhibition(mm) C. albicans,C. albicans [3],0 mm
same,Zone of inhibition(mm) S. aureus,S. aureus [4],0 mm
same,Zone of inhibition(mm) E. coli,E. coli [5],0 mm
same,CFU/ml S. aureus,S. aureus [1],6.4 × 10^8 CFU/ml
same,absorption and metabolism,[6],fast absorption and metabolism into naturally-occurring amino acids and the lauric acid
same,"reduction of viable bacteria compared to the control, E. coli",E. coli [2],no inhibition
same,CFU/ml E. coli,E. coli [2]; monohydrochloride,1.0 × 10^9 CFU/ml and 1.1 × 10^9 CFU/ml
same,"reduction of viable bacteria compared to the control, P. aeruginosa",P. aeruginosa; alone at 10 ppm,no inhibition
same,CFU/ml P. aeruginosa,P. aeruginosa; [10],1.0 × 10^9 CFU/ml
same,"reduction of viable bacteria compared to the control, E. faecium",E. faecium; alone at 10 ppm,< 2 log
same,CFU/ml E. faecium,E. faecium; [10],5.0 × 10^7 CFU/ml
same,"reduction of viable bacteria compared to the control, C. albicans",C. albicans [7]; alone at 10 ppm,< 2 log
same,CFU/ml C. albicans,C. albicans [7]; [10],6.0 × 10^7 CFU/ml
same,zone of inhibition,[8],no zones of inhibition
same,toxicological finding,[9],completely harmless to animals and humans

# Reference: patent publication US20060263444A1, “Antimicrobial composition” (priority 2005, published 2006)
